# Experiments:
# Format in all cases: in vivo
# [1] = test system: BKS. Cg-+Lepr^db/+Lepr^db/JcI mice (type II diabetes model mice); test: Nonfasting serum insulin concentration, Test Example 1; details: for Serum insulin concentration: non-fasting, 10 mL/kg orally once a day
# Source text: (§1) Twenty seven (27) BKS. Cg-+Lepr^db/+Lepr^db/JcI mice (Clea Japan Inc., female, 7 week old), which were type II diabetes model mice expressing the symptoms of hyperinsulinemia due to insulin resistance, were divided into 3 groups each consisting of 9 mice. The groups were designated as group 1, group 2, and group 3. Mice of the groups 1 to 3 were fed with free access to pellets CE-2 (Clea Japan Inc.; hereinafter referred to as “CE-2”) for feeding mice and rats. To the mice of group 1, 0.5 w/v % methyl cellulose (0.5 w/v % methyl cellulose 400 cP solution, sterilized, produced by Wako Pure Chemical Industries, Ltd. for biochemistry; hereinafter referred to as “0.5% MC”) was administered orally once a day (10 mL/kg). To the mice of group 2, a pyrroloquinoline quinone disodium salt (hereinafter referred to as “PQQ disodium salt,” produced by Mitsubishi Gas Chemical Company, Inc.) suspended in 0.5% MC to a concentration of 0.5 mg/mL was administered orally once a day (10 mL/kg). To the mice of group 3, a PQQ disodium salt suspended in 0.5% MC to a concentration of 2 mg/mL was administered orally once a day (10 mL/kg). Blood was collected from the orbital veins on day 14 and day 28 after the initiation of the test, and thus serum was obtained. Nonfasting blood serum glucose levels and nonfasting serum insulin concentrations were separately measured using a glucose C-II Test Wako (produced by Wako Pure Chemical Industries, Ltd.) and a Mouse Insulin ELISA Kit (S-type) (produced by Shibayagi Co., Ltd.), respectively. After 18 hours of fasting from day 28 to day 29 after the initiation of the test, a 40% (w/v) glucose aqueous solution was administered orally to each mouse at 2 g/kg B.W., so as to load the mice with glucose (to test the glucose tolerance). Blood was collected from tail veins at the time of administration of a glucose aqueous solution (0 minute) and then at a certain time point after administration (120 minutes). Blood glucose levels were measured using a Medisafe Reader GR-101 (produced by Terumo Corporation). […] Blood serum glucose levels and serum insulin concentrations were separately measured using a glucose C-II Test Wako and a Mouse Insulin ELISA Kit (S-type), respectively. The results were expressed as average levels±standard deviation (n=9). Statistical significance levels (p-values) were found by a t-test (group 1 with respect to group 2; and group 1 with respect to group 3).
# [2] = Body weight of type II diabetes model mice, Test Example 1; details: for Body weight: 10 mL/kg orally once a day
# Source text: Twenty seven (27) BKS. Cg-+Lepr^db/+Lepr^db/JcI mice (Clea Japan Inc., female, 7 week old), which were type II diabetes model mice expressing the symptoms of hyperinsulinemia due to insulin resistance, were divided into 3 groups each consisting of 9 mice. The groups were designated as group 1, group 2, and group 3.
# Mice of the groups 1 to 3 were fed with free access to pellets CE-2 (Clea Japan Inc.; hereinafter referred to as “CE-2”) for feeding mice and rats. To the mice of group 1, 0.5 w/v % methyl cellulose (0.5 w/v % methyl cellulose 400 cP solution, sterilized, produced by Wako Pure Chemical Industries, Ltd. for biochemistry; hereinafter referred to as “0.5% MC”) was administered orally once a day (10 mL/kg). To the mice of group 2, a pyrroloquinoline quinone disodium salt (hereinafter referred to as “PQQ disodium salt,” produced by Mitsubishi Gas Chemical Company, Inc.) suspended in 0.5% MC to a concentration of 0.5 mg/mL was administered orally once a day (10 mL/kg). To the mice of group 3, a PQQ disodium salt suspended in 0.5% MC to a concentration of 2 mg/mL was administered orally once a day (10 mL/kg).
# [3] = test system: BKS. Cg-+Lepr^db/+Lepr^db/JcI mice (type II diabetes model mice); test: Test Example 1 overall conclusion (insulin resistance, type II diabetes, body weight); details: Test Example 1, oral once a day for about 32 days
# Source text: Twenty seven (27) BKS. Cg-+Lepr^db/+Lepr^db/JcI mice (Clea Japan Inc., female, 7 week old), which were type II diabetes model mice expressing the symptoms of hyperinsulinemia due to insulin resistance, were divided into 3 groups each consisting of 9 mice. The groups were designated as group 1, group 2, and group 3. Mice of the groups 1 to 3 were fed with free access to pellets CE-2 (Clea Japan Inc.; hereinafter referred to as “CE-2”) for feeding mice and rats. To the mice of group 1, 0.5 w/v % methyl cellulose (0.5 w/v % methyl cellulose 400 cP solution, sterilized, produced by Wako Pure Chemical Industries, Ltd. for biochemistry; hereinafter referred to as “0.5% MC”) was administered orally once a day (10 mL/kg). […] Nonfasting blood serum glucose levels and nonfasting serum insulin concentrations were separately measured using a glucose C-II Test Wako (produced by Wako Pure Chemical Industries, Ltd.) and a Mouse Insulin ELISA Kit (S-type) (produced by Shibayagi Co., Ltd.), respectively. […] Blood glucose levels were measured using a Medisafe Reader GR-101 (produced by Terumo Corporation). […] Blood serum glucose levels and serum insulin concentrations were separately measured using a glucose C-II Test Wako and a Mouse Insulin ELISA Kit (S-type), respectively. The results were expressed as average levels±standard deviation (n=9). […]
# [4] = test system: BKS. Cg-+Lepr^db/+Lepr^db/JcI mice (type II diabetes model mice); test: Fasting blood serum glucose level on day 32, Test Example 1; details: for Blood glucose level: fasting, day 32 after initiation of test, 10 mL/kg orally once a day; for Fasting blood glucose levels compared with group 1 (0.5% MC): day 32
# Source text: as §1
# [5] = test system: BKS. Cg-+Lepr^db/+Lepr^db/JcI mice (type II diabetes model mice); test: Glucose tolerance test, Test Example 1; details: for Blood glucose level: glucose tolerance test day 29, glucose 2 g/kg orally after 18 h fasting, 10 mL/kg orally once a day
# Source text: as §1
# [6] = test system: BKS. Cg-+Lepr^db/+Lepr^db/JcI mice (type II diabetes model mice); test: Nonfasting blood serum glucose level, Test Example 1; details: for Blood glucose level: non-fasting, 10 mL/kg orally once a day
# Source text: as §1
# [7] = test system: BKS. Cg-+Lepr^db/+Lepr^db/JcI mice (type II diabetes model mice); test: Fasting serum insulin concentration on day 32, Test Example 1; details: for Insulin concentration: day 32 after initiation of test, 10 mL/kg orally once a day
# Source text: Twenty seven (27) BKS. Cg-+Lepr^db/+Lepr^db/JcI mice (Clea Japan Inc., female, 7 week old), which were type II diabetes model mice expressing the symptoms of hyperinsulinemia due to insulin resistance, were divided into 3 groups each consisting of 9 mice. The groups were designated as group 1, group 2, and group 3. Mice of the groups 1 to 3 were fed with free access to pellets CE-2 (Clea Japan Inc.; hereinafter referred to as “CE-2”) for feeding mice and rats. To the mice of group 1, 0.5 w/v % methyl cellulose (0.5 w/v % methyl cellulose 400 cP solution, sterilized, produced by Wako Pure Chemical Industries, Ltd. for biochemistry; hereinafter referred to as “0.5% MC”) was administered orally once a day (10 mL/kg). To the mice of group 2, a pyrroloquinoline quinone disodium salt (hereinafter referred to as “PQQ disodium salt,” produced by Mitsubishi Gas Chemical Company, Inc.) suspended in 0.5% MC to a concentration of 0.5 mg/mL was administered orally once a day (10 mL/kg). To the mice of group 3, a PQQ disodium salt suspended in 0.5% MC to a concentration of 2 mg/mL was administered orally once a day (10 mL/kg). Blood was collected from the orbital veins on day 14 and day 28 after the initiation of the test, and thus serum was obtained. Nonfasting blood serum glucose levels and nonfasting serum insulin concentrations were separately measured using a glucose C-II Test Wako (produced by Wako Pure Chemical Industries, Ltd.) and a Mouse Insulin ELISA Kit (S-type) (produced by Shibayagi Co., Ltd.), respectively. […] Blood glucose levels were measured using a Medisafe Reader GR-101 (produced by Terumo Corporation). […] Blood serum glucose levels and serum insulin concentrations were separately measured using a glucose C-II Test Wako and a Mouse Insulin ELISA Kit (S-type), respectively. The results were expressed as average levels±standard deviation (n=9). […]
# [8] = test system: type II diabetes model KK-AY/Ta JcI mice; test: Glucose tolerance test, Test Example 2; details: for Blood glucose level: glucose tolerance test day 15, glucose 1 g/kg orally after 18 h fasting, 10 mL/kg orally once a day; for Blood glucose levels in glucose tolerance test compared with group 1 (0.5% MC): 30, 60 and 120 minutes after glucose
# Method: Eighteen type II diabetes model KK-AY/Ta JcI mice (Clea Japan Inc., male, 6 week old) were divided into 3 groups (6 mice in group 1, 7 mice in group 2, and 5 mice in group 3). The groups were designated as group 1, group 2, and group 3, respectively. Mice of the groups 1 to 3 were fed with free access to pellets CE-2 for feeding mice and rats. To the mice of group 1, 0.5% MC was administered orally once a day (10 mL/kg). To the mice of group 2, a PQQ disodium salt suspended in 0.5% MC to a concentration of 0.5 mg/mL was administered orally once a day (10 mL/kg). To the mice of group 3, a PQQ disodium salt suspended in 0.5% MC to a concentration of 2 mg/mL was administered orally once a day (10 mL/kg). After 18 hours of fasting from day 14 to day 15 after the initiation of the test, a 10% (w/v) glucose aqueous solution was administered orally to each mouse at 1 g/kg B.W., so as to load the mice with glucose to test the glucose tolerance. Blood was collected from tail veins at 0 minutes, 30 minutes, 60 minutes, and 120 minutes after administration of the glucose aqueous solution. Blood glucose levels were measured using a Medisafe Reader GR-101 (produced by Terumo Corporation). […] Blood glucose levels were expressed as average levels±standard deviation (n=5-7) and statistical significance levels (p-values) were found by a t-test (group 1 with respect to group 2; and group 1 with respect to group 3).
# [9] = group 2: 0.5 mg/mL, day 14 after initiation of test
# [10] = group 2: 0.5 mg/mL, day 28 after initiation of test
# [11] = group 3: 2 mg/mL, day 14 after initiation of test
# [12] = group 3: 2 mg/mL, day 28 after initiation of test
# [13] = group 2 (0.5 mg/mL, 10 mL/kg orally once a day)
# [14] = group 3 (2 mg/mL, 10 mL/kg orally once a day)
smiles,measurement,setting,value
"O=C(O)c1cc(C(=O)O)c2c(n1)C(=O)C(=O)c1cc(C(=O)O)[nH]c1-2.[Na].[Na] [PQQ disodium salt, pyrroloquinoline quinone disodium salt]",Serum insulin concentrations compared with group 1 (0.5% MC),"[1]; groups 2 and 3 (0.5 and 2 mg/mL, 10 mL/kg orally once a day), day 14 and 28",lower than those of group 1
same,Serum insulin concentration,[1]; [9],4.02 ± 0.75 ng/mL
same,Serum insulin concentration,[1]; [10],3.02 ± 0.47 ng/mL
same,Serum insulin concentration,[1]; [11],6.23 ± 1.69 ng/mL
same,Serum insulin concentration,[1]; [12],4.82 ± 1.81 ng/mL
same,Body weight,"[2]; group 2: 0.5 mg/mL in 0.5% MC, day 0 (test initiated)",29.90 ± 0.37 g
same,Body weight,"[2]; group 2: 0.5 mg/mL in 0.5% MC, day 31",37.18 ± 0.65 g
same,Body weight,"[2]; group 3: 2 mg/mL in 0.5% MC, day 0 (test initiated)",29.93 ± 0.51 g
same,Body weight,"[2]; group 3: 2 mg/mL in 0.5% MC, day 31",39.01 ± 1.07 g
same,Body weights compared with group 1 (0.5% MC),"[2]; groups 2 and 3 (0.5 and 2 mg/mL, 10 mL/kg orally once a day), after completion of the test",almost the same as those of group 1
same,"Overall effect on insulin resistance, type II diabetes and body weight",[3],exerts an effect of improving insulin resistance and a therapeutic effect on type II diabetes without body weight gain
same,Blood glucose level,[4]; group 2: 0.5 mg/mL,617.7 ± 39.1 mg/dL
same,Blood glucose level,"[4]; group 3: 2 mg/mL, *p < 0.05 with respect to group 1",575.6 ± 33.3* mg/dl
same,Fasting blood glucose levels compared with group 1 (0.5% MC),[4]; [13],lower than those of group 1
same,Fasting blood glucose levels compared with group 1 (0.5% MC),[4]; [14],significantly lower than those of group 1
same,Blood glucose level,"[5]; group 2: 0.5 mg/mL, 0 minute",281.3 ± 16.3 mg/dL
same,Blood glucose level,"[5]; group 2: 0.5 mg/mL, 120 minutes",522.0 ± 22.9 mg/dL
same,Blood glucose level,"[5]; group 3: 2 mg/mL, 0 minute",303.4 ± 25.9 mg/dL
same,Blood glucose level,"[5]; group 3: 2 mg/mL, 120 minutes",489.3 ± 47.5 mg/dL
same,Blood glucose levels in glucose tolerance test compared with group 1 (0.5% MC),"[5]; groups 2 and 3 (0.5 and 2 mg/mL, 10 mL/kg orally once a day), 120 minutes after glucose",lower than those of group 1
same,Non-fasting blood glucose levels compared with group 1 (0.5% MC),"[6]; groups 2 and 3 (0.5 and 2 mg/mL, 10 mL/kg orally once a day), day 14 and day 28",lower than those of group 1
same,Blood glucose level,[6]; [9],427.7 ± 11.4 mg/dL
same,Blood glucose level,[6]; [10],531.5 ± 12.3 mg/dL
same,Blood glucose level,[6]; [11],405.7 ± 24.1 mg/dL
same,Blood glucose level,[6]; [12],546.1 ± 26.0 mg/dL
same,Insulin concentration,[7]; group 2: 0.5 mg/mL,4.88 ± 0.75 ng/mL
same,Insulin concentration,[7]; group 3: 2 mg/mL,4.4 ± 0.66 ng/mL
same,Serum insulin concentrations compared with group 1 (0.5% MC),"[7]; groups 2 and 3 (0.5 and 2 mg/mL, 10 mL/kg orally once a day), day 32",lower than those of group 1
same,Overall effect on type II diabetes,"[8]; Test Example 2, model mice with a gene mutation differing from test example 1",exerts a therapeutic effect on type II diabetes
same,Blood glucose level,"[8]; group 2: 0.5 mg/mL, 0 minutes",116.7 ± 10.1 mg/dL
same,Blood glucose level,"[8]; group 2: 0.5 mg/mL, 30 minutes, ***p < 0.001 with respect to group 1",274.9 ± 8.4*** mg/dl
same,Blood glucose level,"[8]; group 2: 0.5 mg/mL, 60 minutes, *p < 0.05 with respect to group 1",264.6 ± 7.6* mg/dl
same,Blood glucose level,"[8]; group 2: 0.5 mg/mL, 120 minutes, **p < 0.01 with respect to group 1",184.3 ± 7.8** mg/dl
same,Blood glucose level,"[8]; group 3: 2 mg/mL, 0 minutes",117.0 ± 12.2 mg/dL
same,Blood glucose level,"[8]; group 3: 2 mg/mL, 30 minutes",300.0 ± 24.1 mg/dL
same,Blood glucose level,"[8]; group 3: 2 mg/mL, 60 minutes",261.6 ± 25.6 mg/dL
same,Blood glucose level,"[8]; group 3: 2 mg/mL, 120 minutes",187.4 ± 20.3 mg/dL
same,Blood glucose levels in glucose tolerance test compared with group 1 (0.5% MC),[8]; [13],significantly lower than those of group 1
same,Blood glucose levels in glucose tolerance test compared with group 1 (0.5% MC),[8]; [14],lower than those of group 1
